Assay results: patent US8685974B2 (Bayer CropScience AG, priority 2009, dated 2014)
Marks after values point to notes of the source that are not given here.

Tests used:
[1] = system: Pyrenophora teres; assay: In vivo test on Pyrenophora teres (barley net blotch); settings: dose of 500 ppm; barley plants; grading 12 days after contamination
Method: In Vivo Test on Pyrenophora teres (Barley Net Blotch)
The active ingredients tested are prepared by homogenization in a mixture of acetone/Tween/DMSO, then diluted with water to obtain the desired active material concentration.
Barley plants (Plaisant variety), sown on a 50/50 peat soil-pozzolana substrate in starter cups and grown at 12° C., are treated at the 1-leaf stage (10 cm tall) by spraying with the active ingredient prepared as described above.
Plants, used as controls, are treated with an aqueous solution not containing the active material.
After 24 hours, the plants are contaminated by spraying them with an aqueous suspension of Pyrenophora teres spores (12,000 spores per ml). The spores are collected from a 12-day-old culture. The contaminated barley plants are incubated for 24 hours at about 20° C. and at 100% relative humidity, and then for 12 days at 80% relative humidity.
Grading is carried out 12 days after the contamination, in comparison with the control plants.

[2] = pH 2.7
[3] = system: Alternaria solani; assay: Alternaria test (tomato) / protective; type: in vivo; settings: 500 ppm active compound, protective spray, evaluated 7 days after inoculation
Method: Alternaria Test (Tomato)/Protective
Solvent: 49 parts by weight of N,N-dimethylformamide
Emulsifier: 1 part by weight of alkylaryl polyglycol ether
To produce a suitable preparation of active compound, 1 part by weight of active compound is mixed with the stated amounts of solvent and emulsifier, and the concentrate is diluted with water to the desired concentration.
To test for protective activity, young tomato plants are sprayed with the preparation of active compound at the stated application rate. […] The plants then remain at 96% rel. atmospheric humidity and a temperature of 20° C.
Evaluation is carried out 7 days after the inoculation. 0% means an efficacy which corresponds to that of the control, whereas an efficacy of 100% means that no infection is observed.

[4] = system: Fusarium graminearum; type: cell-based; settings: 50 μM; for % Inhibition of DON/AcDON at 50 μM: 7 days at 28° C.

SMILES	protection [1] [%]	log p [2]	logP value of the minor isomer (in parenthesis in column Isomer ratio [d]) ([2]; minor isomer, main value of the example measured by method [b])	efficacy [3] [%]	% Inhibition of fungal growth at 50 μM [4] [%]	% Inhibition of DON/AcDON at 50 μM [4] [%]	logP value of the minor isomer [2]
Clc1ccc(-c2nn(C3CCCCC3)cc2-c2ccncc2)s1 [Example 11]	89	2.54^[b]	–	–	–	–	–
CC(C)CC(C)n1cc(-c2ccncc2)c(-c2ccc(Cl)s2)n1 (stereo not shown) [Example 13]	94	2.7^[b]	–	–	–	–	–
CC(C)(C)Cn1cc(-c2ccncc2)c(-c2ccc(Cl)s2)n1 [Example 24]	90	2.39^[b]	–	–	–	–	–
CC(C)Cn1cc(-c2ccncn2)c(-c2ccc(Cl)s2)n1 [Example 26]	70	3.31^[b]	–	–	–	–	–
CCn1cc(-c2ccncc2)c(-c2ccc(Cl)s2)n1 [Example 57]	95	1.5^[b]	(1.42)	–	–	–	–
FC(F)(F)Cn1cc(-c2ccncc2)c(-c2cc3ccsc3s2)n1 [Example 330]	–	1.91^[b]	–	94	31	94	–
CCC(CC)n1cc(-c2ccncc2)c(-c2cc3ccsc3s2)n1 [Example 333]	–	2.3^[b]	–	94	86	98	–
CCOCCn1cc(-c2ccncc2)c(-c2cc3ccsc3s2)n1 [Example 337]	–	1.7^[b]	–	94	100	99	–
CC1(Cn2cc(-c3ccncc3)c(-c3ccc(F)s3)n2)CC1(Cl)Cl (stereo not shown) [Example 342]	–	2.39^[b]	–	89	23	97	–
Fc1ccc(-c2nn(C3CCCC3)cc2-c2ccncc2)s1 [Example 344]	–	2.02^[b]	–	94	91	98	–
CC(C)(C)Cn1cc(-c2ccncc2)c(-c2ccc(F)s2)n1 [Example 345]	–	2.11^[b]	–	94	63	97	–
CC(C)(C)Cn1cc(-c2ccncc2)c(-c2ccc(Br)s2)n1 [Example 347]	–	2.46^[b]	–	70	79	99	–
O=C1OCCC1n1cc(-c2ccncc2)c(-c2ccc(Cl)s2)n1 (stereo not shown) [Example 365]	–	1.48^[b]	–	78	100	90	–
CC(C)n1cc(-c2ccncc2)c(-c2cc3ccsc3s2)n1 [Example 366]	–	1.79^[b]	–	78	93	98	–
FCCn1cc(-c2ccncc2)c(-c2cc3ccsc3s2)n1 [Example 367]	–	1.45^[b]	–	78	78	99	–
C=CC(C)n1cc(-c2ccncc2)c(-c2cc3ccsc3s2)n1 (stereo not shown) [Example 368]	–	1.94^[b]	–	78	100	99	–
CC(C)Cn1cc(-c2ccncc2)c(-c2cc3ccsc3s2)n1 [Example 369]	–	2.04^[b]	–	94	100	99	–

SMILES	protection [1] [%]	log p [2]	logP value of the minor isomer (in parenthesis in column Isomer ratio [d]) ([2]; minor isomer, main value of the example measured by method [b])	efficacy [3] [%]	% Inhibition of fungal growth at 50 μM [4] [%]	% Inhibition of DON/AcDON at 50 μM [4] [%]	logP value of the minor isomer [2]
FC(F)Cn1cc(-c2ccncc2)c(-c2cc3ccsc3s2)n1 [Example 371]	–	1.63^[b]	–	78	82	99	–
Fc1ccc(-c2nn(CC(F)F)cc2-c2ccncc2)s1 [Example 373]	–	1.34^[b]	–	100	97	99	–
CCOCCn1cc(-c2ccncc2)c(-c2ccc(F)s2)n1 [Example 374]	–	1.43^[b]	–	94	58	99	–
FCCn1cc(-c2ccncc2)c(-c2ccc(F)s2)n1 [Example 375]	–	1.16^[b]	–	100	78	99	–
C=CC(C)n1cc(-c2ccncc2)c(-c2ccc(F)s2)n1 (stereo not shown) [Example 376]	–	1.73^[b]	–	100	84	99	–
CCn1cc(-c2ccncc2)c(-c2ccc(F)s2)n1 [Example 377]	–	1.28^[b]	–	100	89	99	(1.22)
Fc1ccc(-c2nn(CC(F)(F)F)cc2-c2ccncc2)s1 [Example 378]	–	1.64^[b]	–	100	54	99	(1.46)
CC(C)Cn1cc(-c2ccncc2)c(-c2ccc(F)s2)n1 [Example 379]	–	1.82^[b]	–	94	90	99	(1.72)
CCC(CC)n1cc(-c2ccncc2)c(-c2ccc(F)s2)n1 [Example 380]	–	2.04^[b]	–	89	82	99	(1.95)
Fc1ccc(-c2nn(CCCl)cc2-c2ccncc2)s1 [Example 381]	–	1.45^[b]	–	94	91	99	(1.34)
O=C1OCCC1n1cc(-c2ccncc2)c(-c2ccc(Br)s2)n1 (stereo not shown) [Example 385]	–	1.52^[b]	–	94	17	82	–
C=CC(C)n1cc(-c2ccncc2)c(-c2ccc(Br)s2)n1 (stereo not shown) [Example 389]	–	2.03^[b]	–	94	96	99	(1.88)
CCn1cc(-c2ccncc2)c(-c2ccc(Br)s2)n1 [Example 390]	–	1.6^[b]	–	100	100	99	(1.49)
FC(F)(F)Cn1cc(-c2ccncc2)c(-c2ccc(Br)s2)n1 [Example 391]	–	1.98^[b]	–	100	97	99	–
CCC(C)n1nc(-c2ccc(Cl)s2)c(-c2ccncc2)c1Br (stereo not shown) [Example 394]	–	3.69^[b]	–	94	92	100	–
CC(C)Cn1nc(-c2ccc(Cl)s2)c(-c2ccncc2)c1Br [Example 395]	–	3.58^[b]	–	78	0	99	–
